# Data as given in patent publication US10329277B2, “N-(2-((2-(dimethylamino)ethyl)(methyl)amino)-4-methoxy-5-((4-(3-methyl-2-OXO-2,3-dihydro-1h-benzo[d]imidazol-1-yl)pyrimidin-2-yl)amino)phenyl)acrylamide hydrochloride as an inhibitor of epidermal growth factor receptor activity” (CHIA TAI TIANQING PHARMACEUTICAL GROUP CO., LTD., priority 2015, dated 2019).
# Where a name gives a salt, the structure may show the parent alone. Read-outs that look alike come from different tables or passages of the source.
# Key:
# [1] = target: T1, EGFR(WT) (Homo sapiens, UniProt P00533); experiment: In vitro enzymatic assay (HTRF), EGFR kinase; type: biochemical
# T1 construct: made in house; host or cells: insect cell expression system
# T1 sequence (P00533 25-1210): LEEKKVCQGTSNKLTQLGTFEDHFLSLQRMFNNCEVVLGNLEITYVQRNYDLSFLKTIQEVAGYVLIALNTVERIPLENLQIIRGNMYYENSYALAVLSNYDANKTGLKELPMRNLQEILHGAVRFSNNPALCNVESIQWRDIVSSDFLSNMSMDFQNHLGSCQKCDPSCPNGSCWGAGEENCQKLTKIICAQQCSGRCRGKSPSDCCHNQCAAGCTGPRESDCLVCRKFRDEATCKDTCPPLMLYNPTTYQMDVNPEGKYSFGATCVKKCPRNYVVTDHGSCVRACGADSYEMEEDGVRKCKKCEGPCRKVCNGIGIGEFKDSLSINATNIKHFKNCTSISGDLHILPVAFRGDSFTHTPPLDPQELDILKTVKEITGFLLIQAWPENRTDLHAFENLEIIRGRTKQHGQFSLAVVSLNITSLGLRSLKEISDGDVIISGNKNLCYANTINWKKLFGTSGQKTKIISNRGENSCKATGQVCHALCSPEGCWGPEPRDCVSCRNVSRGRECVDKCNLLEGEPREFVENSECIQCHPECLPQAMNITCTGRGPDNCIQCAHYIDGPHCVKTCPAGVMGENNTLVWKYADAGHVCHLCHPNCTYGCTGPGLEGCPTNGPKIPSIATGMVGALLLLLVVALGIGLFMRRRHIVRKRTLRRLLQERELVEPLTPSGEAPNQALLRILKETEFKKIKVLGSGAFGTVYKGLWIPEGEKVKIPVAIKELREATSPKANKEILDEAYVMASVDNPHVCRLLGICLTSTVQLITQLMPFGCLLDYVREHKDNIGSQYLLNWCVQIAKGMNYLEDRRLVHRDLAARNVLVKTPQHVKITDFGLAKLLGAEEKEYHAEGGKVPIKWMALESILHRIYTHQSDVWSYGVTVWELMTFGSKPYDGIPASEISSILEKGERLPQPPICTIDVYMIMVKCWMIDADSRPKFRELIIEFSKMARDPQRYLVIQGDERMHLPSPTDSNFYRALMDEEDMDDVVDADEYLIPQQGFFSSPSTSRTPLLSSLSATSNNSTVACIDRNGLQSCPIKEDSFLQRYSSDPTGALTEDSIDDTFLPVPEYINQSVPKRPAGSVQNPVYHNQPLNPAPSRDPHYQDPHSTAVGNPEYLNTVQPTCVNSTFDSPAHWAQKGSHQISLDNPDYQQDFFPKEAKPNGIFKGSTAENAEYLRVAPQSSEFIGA
# [2] = Pharmacokinetic assay in rats; type: in vivo; settings: PO 10 mg/kg single dose, plasma
# Experimental: Healthy adult male rats were subjected to single-dose intragastric administration of the test compounds at a dose of 10 mg/kg with 20% sulfobutyl ether-β-cyclodextrin as an excipient. Before the experiment, the animals were fasted overnight, and the fasting time last from 10 hrs prior to the administration to 4 hrs after the administration. At 0.25, 0.5, 1, 2, 4, 6, 8 and 24 hrs after the intragastric administration, blood sampling was conducted. Approximately 0.3 mL of whole blood was collected from retro-orbital venous sinus, and placed into tubes that contained heparin as an anticoagulant. The samples were centrifuged at 4° C. and 4000 rpm for 5 min. The plasma was transferred into centrifuge tubes, and stored at −80° C. till being analyzed. Concentrations of test compounds in the plasma samples were analyzed with non-validated liquid chromatography-tandem mass spectrometry (LC-MS/MS). Plasma concentration-time data of individual animals was analyzed using WinNonlin (Professional Edition, version 6.3; Pharsight Company) software. Non-compartmental model was introduced in concentration analysis. The pharmacokinetic parameters of the test compounds were calculated.
# [3] = tested on: Human non-small cell lung cancer cells NCI-H1975; experiment: Cell proliferation assay, NCI-H1975 (CellTiter-Glo); type: cell-based; settings: NCI-H1975, treatment 72 hours, read-out: Cell viability (IC50 nM) NCI-H1975
# Experimental: Human non-small cell lung cancer cells NCI-H1975 were cultured in RPIM-1640 culture medium supplemented with 10% fetal bovine serum and 1% penicillin-plus-streptomycin in a cell incubator (37° C., 5% CO2). The cells were seeded in a 96-well plate at a density of 2,000 cells per well (volume: 195 μl) and cultured overnight. On the next day, the compounds were added. In particular, the compounds were diluted at a 3-fold gradient with a starting concentration of 10 mM. 4 μl of each concentration was taken and added into 96 μl of culture medium. […] After treatment for 72 hours, the medium was aspirated and 30 μl of CellTiter-Glo® (Promega) reagent was added. Fluorescence signals were read on Envison (Perkin Elmer), and IC50 values of the compounds for inhibiting cell proliferation were calculated using GraphPad Prism 5.0.
# [4] = tested on: Human skin squamous carcinoma cell line A431; experiment: Cell proliferation assay, A431 (soft agar, CellTiter-Blue); type: cell-based; settings: A-431, 168 h, A431, treatment 7 days, read-out: Cell viability (IC50 nM) A431
# Experimental: Human skin squamous carcinoma cell line A431 was cultured in DMEM supplemented with 10% fetal bovine serum and 1% penicillin-plus-streptomycin in a cell incubator (37° C., 5% CO2). In the tests of the compounds, the bottom substrate was at a concentration of 0.6%. Cells were re-suspended with 0.3% low-melting-point agar, and then seeded in a 96-well plate at a density of 2,000 cells per well (100 μl). The compounds were diluted at a 3-fold gradient with a starting concentration of 10 mM. 2 μl of each concentration was taken and added to 98 μl of culture medium, and then 5.3 μl of the mixture was added to the cell culture medium (final DMSO concentration being 0.1%, v/v). After treatment for one week (7 days), 20 μl of CellTiter-Blue® (Promega) reagent was added, and the plate was incubated at 37° C. for 4 hours. Fluorescence signals were read on Envison (Perkin Elmer), and IC50 values of the compound for inhibiting cell proliferation were calculated using GraphPad Prism 5.0.
# [5] = male rats, Hydrochloride, 10 mg/kg
IC50 [1] [nM],IC50 [3] [nM],Compound,other results
44.9,17,"C=CC(=O)Nc1cc(Nc2nccc(-n3c(=O)oc4ccccc43)n2)c(OC)cc1N(C)CCN(C)C [Example 5, N-(2-((2-(dimethylamino)ethyl)(methyl)amino)-4-methoxy-5-(4-(2-oxobenzo[d]oxazol-3(2H)-yl)pyrimidin-2-ylamino)phenyl) acrylamide Hydrochloride]",–
–,4.56,"C=CC(=O)Nc1cc(Nc2nccc(-n3c(=O)n(C)c4cc(Cl)ccc43)n2)c(OC)cc1N(C)CCN(C)C [Example 14, N-(5-(4-(5-chloro-3-methyl-2-oxo-2,3-dihydro-1H-benzo[d]imidazole-1-yl)pyrimidin-2-ylamino)-2-((2-(dimethylamino)ethyl)(methyl)amino)-4-methoxyphenyl) acrylamide Hydrochloride]",IC50 [4]: 538 nM
20.6,2.87,"C=CC(=O)Nc1cc(Nc2ncc(Cl)c(-n3c(=O)[nH]c4ccccc43)n2)c(OC)cc1N(C)CCN(C)C [Example 4, N-(5-(5-chloro-4-(2-oxo-2,3-dihydro-1H-benzo[d]imidazol-1-yl)pyrimidin-2-ylamino)-2-((2-(dimethylamino)ethyl)(methyl)amino)-4-methoxyphenyl) acrylamide Hydrochloride]",–
–,9.08,"C=CC(=O)Nc1cc(Nc2nccc(-c3cn(C)c4ccccc34)n2)c(OC)cc1N(C)CCN(C)C [AZD9291, reference compound]",IC50 [4]: 53.5 nM
196,–,"C=CC(=O)Nc1cc(Nc2ncc(Cl)c(-n3c(=O)n(C)c4ccccc43)n2)c(OC)cc1N(C)CCN(C)C [Example 3, N-(5-(5-chloro-4-(3-methyl-2-oxo-2,3-dihydro-1H-benzo[d]imidazol-1-yl)pyrimidin-2-ylamino)-2-((2-(dimethylamino)ethyl)(methyl)amino)-4-methoxyphenyl) acrylamide Hydrochloride]",–
–,6.83,"C=CC(=O)Nc1cc(Nc2nccc(-n3c(=O)n(C)c4cc(Br)ccc43)n2)c(OC)cc1N(C)CCN(C)C [Example 15, N-(5-(4-(5-bromo-3-methyl-2-oxo-2,3-dihydro-1H-benzo[d]imidazole-1-yl)pyrimidin-2-ylamino)-2-((2-(dimethylamino)ethyl)(methyl)amino)-4-methoxyphenyl) acrylamide Hydrochloride]",IC50 [4]: 834 nM

# Further lines, the molecule ahead of its results:
Compound,IC50 [1] [nM],IC50 [3] [nM],other results
"COC/C=C/C(=O)Nc1cc(Nc2nccc(-n3c(=O)n(C)c4ccccc43)n2)c(OC)cc1N(C)CCN(C)C [Example 7, (E)-N-(2-((2-(dimethylamino)ethyl)(methyl)amino)-4-methoxy-5-(4-(3-methyl-2-oxo-2,3-dihydro-1H-benzo[d]imidazol-1-yl)pyrimidin-2-ylamino)phenyl)-4-methoxybut-2-enamide]",164,–,–
"C=CC(=O)Nc1cc(Nc2nccc(-n3c(=O)n(C)c4ccccc43)n2)c(OC)cc1N(C)CCN(C)C [Example 13, N-(2-((2-(dimethylamino)ethyl)(methyl)amino)-4-methoxy-5-(4-(3-methyl-2-oxo-2,3-dihydro-1H-benzo[d]imidazol-1-yl)pyrimidin-2-ylamino)phenyl)acrylamide]",–,–,"Cmax ([2]; male rats, 10 mg/kg): 94.4 ng/mL; t1/2 ([2]; male rats, 10 mg/kg): 147 min; AUC(0-inf) ([2]; male, rat, po, 10 mg/kg): 401 ng·h/mL; Tmax ([2]; rat, male rats, read-out: Tmax): 40.2 min"
"C=CC(=O)Nc1cc(Nc2nccc(-n3c(=O)[nH]c4cc(C)ccc43)n2)c(OC)cc1N(C)CCN(C)C [Example 9, N-(2-((2-(dimethylamino)ethyl)(methyl)amino)-4-methoxy-5-(4-(5-methyl-2-oxo-2,3-dihydrobenzo[d]imidazol-1-yl)pyrimidin-2-ylamino)phenyl)acrylamide Hydrochloride]",3.93,–,–
"C=CC(=O)Nc1cc(Nc2nccc(-n3c(=O)[nH]c4ccccc43)n2)c(OC)cc1N(C)CCN(C)C [Example 2, N-(2-((2-(dimethylamino)ethyl)(methyl)amino)-4-methoxy-5-(4-(2-oxo-2,3-dihydrobenzo[d]imidazol-1-yl)pyrimidin-2-ylamino)phenyl)acrylamide Hydrochloride]",2.59,0.96,–
"C=CC(=O)Nc1cc(Nc2nccc(-n3c(=O)n(C)c4ccccc43)n2)c(OC)cc1N(C)CCN(C)C [Example 1, N-(2-((2-(dimethylamino)ethyl)(methyl)amino)-4-methoxy-5-(4-(3-methyl-2-oxo-2,3-dihydro-1H-benzo[d]imidazol-1-yl)pyrimidin-2-ylamino)phenyl)acrylamide Hydrochloride]",9.07,2.76,"IC50 [4]: 22.5 nM; Tmax ([2]; male rats): 40.2 min; AUC0-INF [2, 5]: 667 ng·h/mL; Cmax [2, 5]: 272 ng/mL; t1/2 [2, 5]: 67.2 min"
"C=CC(=O)Nc1cc(Nc2nccc(-n3c(=O)n(C)c4ccccc43)n2)c(OC)cc1N(C)CCNC [Example 12, N-(4-methoxy-2-(methyl(2-(methylamino)ethyl)amino)-5-(4-(3-methyl-2-oxo-2,3-dihydrobenzo[d]imidazol-1-yl)pyrimidin-2-ylamino)phenyl)acrylamide Hydrochloride]",5.26,3.17,–
"C=CC(=O)Nc1cc(Nc2nccc(-n3c(=O)[nH]c4cc(F)ccc43)n2)c(OC)cc1N(C)CCN(C)C [Example 11, N-(2-((2-(dimethylamino)ethyl)(methyl)amino)-5-(4-(5-fluoro-2-oxo-2,3-dihydrobenzo[d]imidazol-1-yl)pyrimidin-2-ylamino)-4-methoxyphenyl)acrylamide Hydrochloride]",2.79,3.7,–
"C=CC(=O)Nc1cc(Nc2nccc(-n3c(=O)n(C)c4cc(F)ccc43)n2)c(OC)cc1N(C)CCN(C)C [Example 10, N-(2-((2-(dimethylamino)ethyl)(methyl)amino)-5-(4-(5-fluoro-3-methyl-2-oxo-2,3-dihydrobenzo[d]imidazol-1-yl)pyrimidin-2-ylamino)-4-methoxyphenyl) acrylamide Hydrochloride]",10.7,1.46,–
